Some results are limits rather than exact numbers.

One experiment deals with skeletal myofibrils (myosin ATPase). Put plainly: Skeletal Myofibril ATPase Assay. The experiment is classed as biochemical. To be noted: Table 4A. As to the method: Example 12. Skeletal Myofibril ATPase Assay
Overview: Myosin ATPase activity is assessed by using a coupled reaction system, in which ADP generated by the myosin ATPase function is coupled to the disappearance of NADH through the pyruvate kinase/lactate dehydrogenase (PK-LDH) system. ATPase activity produces ADP, which is used as a substrate for PK to produce pyruvate and regenerate ATP. The pyruvate is then used as a substrate by LDH to oxidize NADH to NAD+. The rate of the reaction is monitored through the time-dependent disappearance of NADH using absorbance at 340 nm. Inhibition of ATPase activity by the assayed compounds is indicated by a reduced rate of NADH loss, relative to vehicle-treated controls, over the experimental time window. To assess the selectivity of the assayed compounds for skeletal myofibrils, the compounds are counter-screened in cardiac myofibrils.
Materials: The following stock solutions and reagents were used in the Skeletal Myofibril ATPase Assay:
Stock Solutions of pCa buffer. Combine PIPES, CaCl2, and EGTA solutions with 70 mL of water. Adjust pH to 7.0 and bring final volume to 100 mL.
Buffer A & Buffer B. Buffers were stored on ice until use.
Skeletal Myofibril ATPase Assay Procedure: BSA, ATP, NADH, PEP, and DTT solutions were thawed at room temperature, then transferred to ice. Pellet-frozen myofibrils were transferred with approximately twice the required volume into a sufficiently large tube and capped. Myofibrils were thawed by rolling in a water bath for approximately 15 min at room temperature and cooled on ice. Buffers A and B were prepared by adjusting volumes as necessary for required number of wells and stored on ice. 0.5 μL of the compounds to be assayed were added into wells. 25 μL of Buffer A was dispensed into the wells, followed by 25 μL of Buffer B. The wells were measured for absorbance at 340 nm, using a kinetic protocol in which the wells are read every 1.5-2 min for 45 min. The slope of the data was approximated by subtracting the minimum absorbance value from the maximum value for each well. This was accomplished either in the SoftMax Pro software or in a spreadsheet program such as Excel. Using GraphPad Prism 8.0, the data was normalized by assigning a value of 100% to the 1% DMSO vehicle wells. Typically, a normalized 0% value was simply assigned to a (Max−Min) value of 0. The normalized data was fit to a Four Parameter Logistic sigmoidal equation, constraining the bottom to be 0 or greater. Compounds of Table 1, 2, and 3 were tested and results of the assay appear in Tables 4a-4c. A=IC50 is less than or equal to 10 μM; B═IC50 is greater than 10 μM and less than 100 μM; C═IC50 is greater than 100 μM.
What is called IC50 is the point on the concentration scale where inhibition reaches its midpoint. A lower IC50 goes with inhibition by little substance. In the case of `CCNC(=O)Cn1nc(-c2cnc(NC34CC(C3)C4)nc2)ccc1=O` [Compound I-59, 2-[3-(2-[bicyclo[1.1.1]pentan-1-ylamino]pyrimidin-5-yl)-6-oxopyridazin-1-yl]-N-ethylacetamide], the IC50 was under 10 µM.

On to `CCNC(=O)Cn1nc(-c2ccc(Oc3ccc(F)cc3)nc2)ccc1=O` [Compound I-21, N-ethyl-2-(3-(6-(4-fluorophenoxy)pyridin-3-yl)-6-oxopyridazin-1(6H)-yl)acetamide], for which the IC50 lay within 10 to 100 µM.

Compound `CC[C@@H](C)NC(=O)Cn1nc(-c2ccc(OC(F)F)nc2)ccc1=O` [Compound I-66, (R)-N-(sec-butyl)-2-(3-(6-(difluoromethoxy)pyridin-3-yl)-6-oxopyridazin-1(6H)-yl)acetamide] gave an IC50 of under 10 µM. The same measure, in the same setting: for `CCNC(=O)Cn1nc(-c2ccc(OC(F)F)[n+]([O-])c2)ccc1=O` [Compound I-65, 2-(difluoromethoxy)-5-(1-(2-(ethylamino)-2-oxoethyl)-6-oxo-1,6-dihydropyridazin-3-yl)pyridine 1-oxide] the value was over 100 µM; for `CCNC(=O)Cn1nc(-c2ccc(N3CC4(COC4)C3)nc2)ccc1=O` [Compound I-31, 2-(3-(6-(2-oxa-6-azaspiro[3.3]heptan-6-yl)pyridin-3-yl)-6-oxopyridazin-1(6H)-yl)-N-ethylacetamide], over 100 µM. In the case of `CCNC(=O)Cn1nc(-c2ccc(CC(F)(F)F)nc2)ccc1=O` [Compound I-37, N-ethyl-2-(6-oxo-3-(6-(2,2,2-trifluoroethyl)pyridin-3-yl)pyridazin-1(6H)-yl)acetamide], the IC50 lay within 10 to 100 µM.

In turn, `O=C(Cn1nc(-c2ccc(OC(F)F)nc2)ccc1=O)NCc1ccccc1Cl` [Compound I-69, N-(2-chlorobenzyl)-2-(3-(6-(difluoromethoxy)pyridin-3-yl)-6-oxopyridazin-1(6H)-yl)acetamide] came in with an IC50 of under 10 µM. `CCNC(=O)Cn1nc(-c2ccc(OC(F)(F)F)nc2)ccc1=O` [Compound I-14, N-ethyl-2-(6-oxo-3-(6-(trifluoromethoxy)pyridin-3-yl)pyridazin-1(6H)-yl)acetamide] showed an IC50 of 10 to 100 µM. As to `O=C(Cn1nc(-c2ccc(OC(F)F)nc2)ccc1=O)NCc1ccc(Cl)cc1` [Compound I-70, N-(4-chlorobenzyl)-2-(3-(6-(difluoromethoxy)pyridin-3-yl)-6-oxopyridazin-1(6H)-yl)acetamide], the 50% inhibitory concentration (IC50) is under 10 µM. With `CCNC(=O)Cn1nc(-c2ccc(NC34CC(C3)C4)nc2)ccc1=O` [Compound I-36, 2-[3-[6-([bicyclo[1.1.1]pentan-1-yl]amino)pyridin-3-yl]-6-oxo-1,6-dihydropyridazin-1-yl]-N-ethylacetamide], the IC50 is under 10 µM. On the same count and under the same terms, for `CCNC(=O)Cn1nc(-c2ccc(SC)nc2)ccc1=O` [Compound I-63, N-ethyl-2-(3-(6-(methylthio)pyridin-3-yl)-6-oxopyridazin-1(6H)-yl)acetamide] the value was under 10 µM; for `CC(C)[C@@](C)(C#N)NC(=O)Cn1nc(-c2ccc(OC(F)F)nc2)ccc1=O` (stereo in doubt) [Compound I-34, N-(2-cyano-3-methylbutan-2-yl)-2-(3-(6-(difluoromethoxy)pyridin-3-yl)-6-oxopyridazin-1(6H)-yl)acetamide], 10 to 100 µM; for `CCNC(=O)Cn1nc(-c2ccc(OCC3(C)COC3)nc2)ccc1=O` [Compound I-24, N-ethyl-2-(3-(6-((3-methyloxetan-3-yl)methoxy)pyridin-3-yl)-6-oxopyridazin-1(6H)-yl)acetamide], 10 to 100 µM.

Staying with this experiment, now noted: Table 4B.
As for `O=C(Cn1nc(-c2ccc(OC(F)F)cc2)ccc1=O)NCC(F)(F)F` [II-11, 2-(3-(4-(difluoromethoxy)phenyl)-6-oxopyridazin-1(6H)-yl)-N-(2,2,2-trifluoroethyl) acetamide], the IC50 is 10 to 100 µM.

The compound `CCNC(=O)Cn1nc(-c2ccc(OC(F)F)cc2)c(C)cc1=O` [II-19, 2-(3-(4-(difluoromethoxy)phenyl)-4-methyl-6-oxopyridazin-1(6H)-yl)-N-ethylacetamide] showed a 50% inhibitory concentration (IC50) of 10 to 100 µM.

Staying with this experiment, now noted: Table 4C.
`COc1ccc(-c2ccc(=O)n(CC(=O)NCc3ccco3)n2)cc1` [IIIb-37, N-(furan-2-ylmethyl)-2-(3-(4-methoxyphenyl)-6-oxopyridazin-1(6H)-yl)acetamide]: the IC50 lay within 10 to 100 µM. With `COc1ccc(-c2ccc(=O)n(CC(=O)NCc3ccc(F)cc3)n2)c(F)c1` [IIIb-46, 2-(3-(2-fluoro-4-methoxyphenyl)-6-oxopyridazin-1(6H)-yl)-N-(4-fluorobenzyl)acetamide], the IC50 was over 100 µM.

Consider `COc1ccc(-c2ccc(=O)n(CC(=O)NCc3ccc(OC)c(OC)c3)n2)cc1` [IIIb-49, N-(3,4-dimethoxybenzyl)-2-(3-(4-methoxyphenyl)-6-oxopyridazin-1(6H)-yl)acetamide], for which the 50% inhibitory concentration (IC50) was over 100 µM. Still for that read-out and setting: for `CC[C@H](C)NC(=O)Cn1nc(-c2ccccc2)ccc1=O` [IIIc-57, (S)-N-(sec-butyl)-2-(6-oxo-3-phenylpyridazin-1(6H)-yl)acetamide] the value was 10 to 100 µM; for `O=C(Cn1nc(-c2ccccc2)ccc1=O)Nc1ccccc1C(F)(F)F` [IIIc-52, 2-(6-oxo-3-phenylpyridazin-1(6H)-yl)-N-(2-(trifluoromethyl)phenyl)acetamide], 10 to 100 µM. On to `CC(C)c1cccc(NC(=O)Cn2nc(-c3ccc4c(c3)OCCCO4)ccc2=O)c1` [IIIb-5, 2-(3-(3,4-dihydro-2H-benzo[b][1,4]dioxepin-7-yl)-6-oxopyridazin-1(6H)-yl)-N-(3-isopropylphenyl)acetamide], for which the IC50 was under 10 µM. Same read-out and setting: to `COc1ccc(-c2ccc(=O)n(CC(=O)Nc3ccc(C(C)C)cc3)n2)cc1` [IIIb-56, N-(4-isopropylphenyl)-2-(3-(4-methoxyphenyl)-6-oxopyridazin-1(6H)-yl)acetamide] belongs over 100 µM; to `COc1ccc(NC(=O)Cn2nc(-c3ccc(F)cc3)ccc2=O)c(OC)c1` [IIIc-31, N-(2,4-dimethoxyphenyl)-2-(3-(4-fluorophenyl)-6-oxopyridazin-1(6H)-yl)acetamide], 10 to 100 µM; to `COc1ccc(-c2ccc(=O)n(CC(=O)NC3CCCCC3)n2)cc1` [IIIb-41, N-cyclohexyl-2-(3-(4-methoxyphenyl)-6-oxopyridazin-1(6H)-yl)acetamide], over 100 µM. The same measure, in the same setting: for `CCNC(=O)Cn1nc(-c2ccc(C3CC3)cc2)ccc1=O` [IIIa-19, 2-(3-(4-cyclopropylphenyl)-6-oxopyridazin-1(6H)-yl)-N-ethylacetamide] the value was under 10 µM; for `COc1ccc(-c2ccc(=O)n(CC(=O)NCc3nccn3C)n2)cc1` [IIIa-33, 2-(3-(4-methoxyphenyl)-6-oxopyridazin-1(6H)-yl)-N-((1-methyl-1H-imidazol-2-yl)methyl) acetamide], over 100 µM. `COc1ccc(-c2ccc(=O)n(CC(=O)Nc3ccc4c(c3)OCO4)n2)cc1` [IIIb-28, N-(benzo[d][1,3]dioxol-5-yl)-2-(3-(4-methoxyphenyl)-6-oxopyridazin-1(6H)-yl)acetamide] returned an IC50 of 10 to 100 µM. On the same count and under the same terms, for `COc1ccc(-c2ccc(=O)n(CC(=O)Nc3ccc4c(c3)OCCO4)n2)cc1` [IIIb-16, N-(2,3-dihydrobenzo[b][1,4]dioxin-6-yl)-2-(3-(4-methoxyphenyl)-6-oxopyridazin-1(6H)-yl)acetamide] the value was under 10 µM; for `COc1ccc(-c2ccc(=O)n(CC(=O)Nc3cc(Cl)ccc3Cl)n2)cc1` [IIIb-10, N-(2,5-dichlorophenyl)-2-(3-(4-methoxyphenyl)-6-oxopyridazin-1(6H)-yl)acetamide], under 10 µM; for `O=C(Cn1nc(-c2ccccc2)ccc1=O)NC1CC1` [IIIc-65, N-cyclopropyl-2-(6-oxo-3-phenylpyridazin-1(6H)-yl)acetamide], over 100 µM. The same measure, in the same setting: to `COc1ccc(-c2ccc(=O)n(CC(=O)Nc3ccc4c(c3)OCCO4)n2)c(F)c1` [IIIb-15, N-(2,3-dihydrobenzo[b][1,4]dioxin-6-yl)-2-(3-(2-fluoro-4-methoxyphenyl)-6-oxopyridazin-1(6H)-yl)acetamide] belongs under 10 µM; to `CCOc1ccc(-c2ccc(=O)n(CC(=O)NCc3ccccc3Cl)n2)cc1` [IIIa-1, N-(2-chlorobenzyl)-2-(3-(4-ethoxyphenyl)-6-oxopyridazin-1(6H)-yl)acetamide], under 10 µM.

Consider `COc1ccc(-c2ccc(=O)n(CC(=O)NCCC3=CCCCC3)n2)cc1` [IIIb-14, N-(2-(cyclohex-1-en-1-yl)ethyl)-2-(3-(4-methoxyphenyl)-6-oxopyridazin-1(6H)-yl)acetamide], for which the IC50 is under 10 µM.
